Laboratory results taken from PubChem BioAssay AID1508610 (The Scripps Research Institute Molecular Screening Center, 2020).
pEC50: −log10 of the molar value. Activity calls are given as the source filed them. The rule behind the calls is not given here.

The compounds below were run against G-protein coupled receptor 151 (Homo sapiens) (UniProt Q8TDV0) (assay: GPR151 activator potency, dose response, cell-based (AID 1508610)). Conditions: cell-based GPR151 activation reporter.
Chain of G-protein coupled receptor 151 (Homo sapiens) (Q8TDV0 whole entry, looked up): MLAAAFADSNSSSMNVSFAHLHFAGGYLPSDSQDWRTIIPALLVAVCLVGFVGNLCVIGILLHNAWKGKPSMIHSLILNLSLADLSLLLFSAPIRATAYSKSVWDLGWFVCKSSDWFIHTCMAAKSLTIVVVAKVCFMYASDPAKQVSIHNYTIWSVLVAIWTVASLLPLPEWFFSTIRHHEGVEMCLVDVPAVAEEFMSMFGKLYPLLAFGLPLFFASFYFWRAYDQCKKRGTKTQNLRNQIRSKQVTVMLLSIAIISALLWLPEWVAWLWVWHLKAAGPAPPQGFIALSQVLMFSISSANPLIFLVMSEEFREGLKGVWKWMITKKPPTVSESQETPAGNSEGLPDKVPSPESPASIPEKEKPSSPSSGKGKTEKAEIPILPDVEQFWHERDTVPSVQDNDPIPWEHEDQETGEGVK

Row | SMILES | EC50 | pEC50
1 | CCN(CC)C(=O)CN(c1ccccc1)S(=O)(=O)c1ccc(C)cc1 | > 28 µM (inactive) | –
2 | C=CCOC(=O)C1=C(C)N2CCSC2=C(C#N)C1c1ccco1 (stereo not drawn) | > 32 µM (inactive) | –
3 | O=C(Nc1nc2c(s1)CCCC2)C1=COCCO1 | > 27.4 µM (inactive) | –
4 | O=C(COc1ccccc1Cl)Nc1nccs1 | > 39.1 µM (inactive) | –
5 | COc1ccc2[nH]c(C)c(CCNCc3ccc(OC(F)(F)F)cc3)c2c1 | > 21.6 µM (inactive) | –
6 | CC(C)(C)OC(=O)NNC(=O)/C=C/c1cc(Br)ccc1F | > 28.1 µM (inactive) | –
7 | COc1ccc(C(=O)Nc2cc(C(=O)NCc3ccc(F)cc3)ccc2N2CC3CC(C2)c2cccc(=O)n2C3)cc1 (stereo not drawn) | > 16.9 µM (inactive) | –
8 | Cn1cccc1C(=O)OCC(=O)NC(=O)NCc1ccccc1 | > 28.4 µM (inactive) | –
9 | COc1ccc(-c2ccc(C(=O)NCCO)s2)cc1 | > 27.9 µM (inactive) | –
10 | COc1ccc(N2CCN(C3CC(=O)NC3=O)CC2)cc1 (stereo not drawn) | > 28 µM (inactive) | –
11 | COc1ccc(-c2cn3cc(C(=O)O)ccc3n2)cc1 | > 29.2 µM (inactive) | –
12 | CCOC(=O)c1sc(NC(=O)C2CC2)nc1C | > 28.6 µM (inactive) | –
13 | Cc1nc2ccccc2n1CC(=O)N1CCc2c(nc(N3CCCC3)[nH]c2=O)C1 | > 28 µM (inactive) | –
14 | CCC(NS(=O)(=O)c1ccc(Cl)c([N+](=O)[O-])c1)C12CC3CC(CC(C3)C1)C2 (stereo not drawn) | > 26.9 µM (inactive) | –
15 | COc1ccc(S(=O)(=O)Nc2ccc(F)c(F)c2)cc1C | > 28 µM (inactive) | –
16 | Cc1cc2nc(-c3cccnc3Cl)[nH]c2cc1C | > 26.1 µM (inactive) | –
17 | N#Cc1nc2[nH]c(-c3ccccc3)cc(=O)n2c1C#N | > 30 µM (inactive) | –

Row | SMILES | EC50 | pEC50
18 | COc1ccc(CCN2C(=O)c3ccc(Oc4ccc(Nc5ncnc6ccccc56)cc4)cc3C2=O)cc1OC | – | 5.62
19 | Cc1ccc(C(=O)Nc2cccc(C(=O)O)c2)cc1 | > 32.6 µM (inactive) | –
20 | Cc1ccn2cc(-c3ccc(F)cc3)nc2c1 | > 30.9 µM (inactive) | –
21 | CC(=O)c1ccc(OC(=O)c2cccc(Br)c2)cc1 | > 25.9 µM (inactive) | –
22 | Cc1cc(N2CCCCC2)nc2ccc(NC(=O)c3cccc([N+](=O)[O-])c3)cc12 | > 29.2 µM (inactive) | –
23 | c1cncc(-c2noc(C34CC5CC(CC(C5)C3)C4)n2)c1 | > 26.4 µM (inactive) | –
24 | O=C(O)c1cccc(NC(=O)c2ccc(Br)o2)c1 | > 28 µM (inactive) | –
25 | COc1ccc(C(=O)Nc2noc3ccccc23)cc1 | > 28 µM (inactive) | –
26 | CCOC(=O)COc1ccc(/C=C2\C=C(c3ccc(Br)cc3)OC2=O)cc1OC | > 23.6 µM (inactive) | –
27 | CCOc1ccccc1NC(=O)N1CCC2(CC1)OCCO2 | > 28 µM (inactive) | –
28 | Cc1cccc(C)c1-n1c(=S)sc2c(=O)n(-c3cccc(Cl)c3)c(SCC#N)nc21 | > 21.8 µM (inactive) | –
29 | CC1(C)Cc2c(C#N)c(N3CCCC3)nc(-c3ccco3)c2CO1 | > 28 µM (inactive) | –
30 | O=C1NC(=S)S/C1=C\c1ccc(C(=O)O)cc1 | > 29.6 µM (inactive) | –
31 | CCN(CC)S(=O)(=O)c1ccc(-c2csc(=Nc3ccccc3OC)n2CC)cc1 | > 17.3 µM (inactive) | –
32 | Cn1c(=O)c2c(nc(NCCO)n2Cc2ccccc2F)n(C)c1=O | > 34.4 µM (inactive) | –
33 | CCCNC(=O)c1ccc(-c2ccc(N3CCOCC3)nc2)s1 | > 28.1 µM (inactive) | –
